Experiments:
Experiment in all cases: NCI-60 single-dose screen
Type in all cases: cell-based
HS 578T = settings: Homo sapiens, Breast Cancer, read-out: % Growth Inhibition (GI%)
Procedure: (§1) Moreover, in vitro single-dose anticancer screening of 11 and 85 at 10 μM was performed utilizing the stable panel of 60 cell lines comprising 9 different cancer types at the National Cancer Institute (NCI) under the Developmental Therapeutics Program (Table S1).[31]

DU-145 = settings: Homo sapiens, DU-145, Prostate Cancer, read-out: % Growth Inhibition (GI%)
Procedure: as §1

BT-549 = settings: Homo sapiens, BT-549, Breast Cancer, read-out: % Growth Inhibition (GI%)
Procedure: as §1

SNB-75 = settings: Homo sapiens, SNB-75, CNS Cancer, read-out: % Growth Inhibition (GI%)
Procedure: as §1

NCI-H226 = settings: Homo sapiens, NCI-H226, Non-Small Cell Lung Cancer, read-out: % Growth Inhibition (GI%)
Procedure: as §1

NCI-H522 = settings: Homo sapiens, NCI-H522, Non-Small Cell Lung Cancer, read-out: % Growth Inhibition (GI%)
Procedure: as §1

HCT-116 = settings: Homo sapiens, HCT-116, Colon Cancer, read-out: % Growth Inhibition (GI%)
Procedure: as §1

SNB-19 = settings: Homo sapiens, SNB-19, CNS Cancer, read-out: % Growth Inhibition (GI%)
Procedure: as §1

U251 = settings: Homo sapiens, U-251, U251, CNS Cancer, read-out: % Growth Inhibition (GI%)
Procedure: as §1

NCI-H23 = settings: Homo sapiens, NCI-H23, Non-Small Cell Lung Cancer, read-out: % Growth Inhibition (GI%)
Procedure: as §1

HT29 = settings: Homo sapiens, HT-29, HT29, Colon Cancer, read-out: % Growth Inhibition (GI%)
Procedure: as §1

SK-MEL-5 = settings: Homo sapiens, SK-MEL-5, Melanoma, read-out: % Growth Inhibition (GI%)
Procedure: as §1

SR = settings: Homo sapiens, Leukemia, read-out: % Growth Inhibition (GI%)
Procedure: as §1

HOP-62 = settings: Homo sapiens, HOP-62, Non-Small Cell Lung Cancer, read-out: % Growth Inhibition (GI%)
Procedure: as §1

OVCAR-3 = settings: Homo sapiens, OVCAR-3, Ovarian Cancer, read-out: % Growth Inhibition (GI%)
Procedure: as §1

SK-MEL-28 = settings: Homo sapiens, SK-MEL-28, Melanoma, read-out: % Growth Inhibition (GI%)
Procedure: as §1

A498 = settings: Homo sapiens, A498, Renal Cancer, read-out: % Growth Inhibition (GI%)
Procedure: as §1

NCI-H322M = settings: Homo sapiens, Non-Small Cell Lung Cancer, read-out: % Growth Inhibition (GI%)
Procedure: as §1

OVCAR-8 = settings: Homo sapiens, OVCAR-8, Ovarian Cancer, read-out: % Growth Inhibition (GI%)
Procedure: as §1

M14 = settings: Homo sapiens, M14, Melanoma, read-out: % Growth Inhibition (GI%)
Procedure: as §1

SK-MEL-2 = settings: Homo sapiens, SK-MEL-2, Melanoma, read-out: % Growth Inhibition (GI%)
Procedure: as §1

OVCAR-4 = settings: Homo sapiens, OVCAR-4, Ovarian Cancer, read-out: % Growth Inhibition (GI%)
Procedure: as §1

786-0 = settings: Homo sapiens, 786-0, Renal Cancer, read-out: % Growth Inhibition (GI%)
Procedure: as §1

NCI/ADR-RES = settings: Homo sapiens, Ovarian Cancer, read-out: % Growth Inhibition (GI%)
Procedure: as §1

HCC-2998 = settings: Homo sapiens, HCC-2998, Colon Cancer, read-out: % Growth Inhibition (GI%)
Procedure: as §1

NCI-H460 = settings: Homo sapiens, NCI-H460, Non-Small Cell Lung Cancer, read-out: % Growth Inhibition (GI%)
Procedure: as §1

MDA-MB-231 = settings: Homo sapiens, MDA-MB-231, Breast Cancer, read-out: % Growth Inhibition (GI%)
Procedure: as §1

SF-268 = settings: Homo sapiens, SF-268, CNS Cancer, read-out: % Growth Inhibition (GI%)
Procedure: as §1

K-562 = settings: Homo sapiens, K562, K-562, Leukemia, read-out: % Growth Inhibition (GI%)
Procedure: as §1

UACC-257 = settings: Homo sapiens, UACC-257, Melanoma, read-out: % Growth Inhibition (GI%)
Procedure: as §1

UACC-62 = settings: Homo sapiens, UACC-62, Melanoma, read-out: % Growth Inhibition (GI%)
Procedure: as §1

HOP-92 = settings: Homo sapiens, HOP-92, Non-Small Cell Lung Cancer, read-out: % Growth Inhibition (GI%)
Procedure: as §1

COLO 205 = settings: Homo sapiens, COLO 205, Colon Cancer, read-out: % Growth Inhibition (GI%)
Procedure: as §1

SF-539 = settings: Homo sapiens, SF-539, CNS Cancer, read-out: % Growth Inhibition (GI%)
Procedure: as §1

| Compound | inhibition at 10 µM (HS 578T) [%] | inhibition at 10 µM (DU-145) [%] | inhibition at 10 µM (BT-549) [%] | inhibition at 10 µM (SNB-75) [%] | inhibition at 10 µM (NCI-H226) [%] | inhibition at 10 µM (NCI-H522) [%] | inhibition at 10 µM (HCT-116) [%] | inhibition at 10 µM (SNB-19) [%] | inhibition at 10 µM (U251) [%] | inhibition at 10 µM (NCI-H23) [%] | inhibition at 10 µM (HT29) [%] | inhibition at 10 µM (SK-MEL-5) [%] | inhibition at 10 µM (SR) [%] | inhibition at 10 µM (HOP-62) [%] | inhibition at 10 µM (OVCAR-3) [%] | inhibition at 10 µM (SK-MEL-28) [%] | inhibition at 10 µM (A498) [%] | inhibition at 10 µM (NCI-H322M) [%] | inhibition at 10 µM (OVCAR-8) [%] | inhibition at 10 µM (M14) [%] | other results |
| --- | --- | --- | --- | --- | --- | --- | --- | --- | --- | --- | --- | --- | --- | --- | --- | --- | --- | --- | --- | --- | --- |
| Cc1ccccc1COc1ccc(-c2noc(C)c2-c2ccc(Cl)cc2)cc1 [compound 11, 4-(4-Chlorophenyl)-5-methyl-3-(4-((2-methylbenzyl)oxy)phenyl)isoxazole] | 40.6 | 22.6 | 33.8 | 47.1 | 42.8 | 74.5 | 66 | 44.5 | 58.7 | 26.2 | 83.1 | 26.6 | 66 | 48.4 | 79.3 | 29.6 | 61.4 | 2.44 | 24.2 | 67.8 | inhibition at 10 µM (SK-MEL-2): 62.9%; inhibition at 10 µM (OVCAR-4): 17.3%; inhibition at 10 µM (786-0): 24.5%; inhibition at 10 µM (NCI/ADR-RES): 60.8%; inhibition at 10 µM (HCC-2998): 13.4%; inhibition at 10 µM (NCI-H460): 45.3%; inhibition at 10 µM (MDA-MB-231): 79.2%; inhibition at 10 µM (SF-268): 24.4%; inhibition at 10 µM (K-562): 85.6%; inhibition at 10 µM (UACC-257): 29.1%; inhibition at 10 µM (UACC-62): 51.5%; inhibition at 10 µM (HOP-92): 27.4%; inhibition at 10 µM (COLO 205): 29%; inhibition at 10 µM (SF-539): 36.5% |
| Cc1ccccc1COc1ccc(-c2ccnn2-c2ccc(Cl)cc2)cc1 [compound 85, 1-(4-Chlorophenyl)-5-(4-((2-methylbenzyl)oxy)phenyl)-1H-pyrazole] | 39.1 | 11.9 | 25 | 39.3 | 29.7 | 70.9 | 61.9 | 38 | 54 | 23.4 | 82.4 | 33.4 | 66.2 | 50.7 | 73.4 | 30.6 | 42.5 | 3.12 | 24.8 | 61 | inhibition at 10 µM (SK-MEL-2): 60.8%; inhibition at 10 µM (OVCAR-4): 14.3%; inhibition at 10 µM (786-0): 17.2%; inhibition at 10 µM (NCI/ADR-RES): 62%; inhibition at 10 µM (HCC-2998): 10.9%; inhibition at 10 µM (NCI-H460): 41.7%; inhibition at 10 µM (MDA-MB-231): 75.8%; inhibition at 10 µM (SF-268): 19.5%; inhibition at 10 µM (K-562): 86.3%; inhibition at 10 µM (UACC-257): 24.3%; inhibition at 10 µM (UACC-62): 39.3%; inhibition at 10 µM (HOP-92): 25.8%; inhibition at 10 µM (COLO 205): 28.8%; inhibition at 10 µM (SF-539): 28.2% |

Source: paper PMC9583322, “Vicinal Diaryl-Substituted Isoxazole and Pyrazole Derivatives with In Vitro Growth Inhibitory and In Vivo Antitumor Activity” (ACS Omega, 2022)
